US8158139B2 (priority 2004, dated 2012)

Assay: Flash point of solvents, closed cup method
Assay type: physicochemical
From the text: In one embodiment, the formulation contains a mixture of organic solvent and isopropyl alcohol.

CCO [ethyl alcohol]
flash point: 14 °C

C=C(C)[C@H]1CC=C(C)CC1 [dipentene]
flash point: 46 °C

CC(C)O [isopropyl alcohol]
flash point: 11.7 °C

CC(O)CO (centres unmarked) [propylene glycol]
flash point: 99 °C

OCc1ccccc1 [benzyl alcohol]
flash point: 100.6 °C
